Laboratory results: patent US20060089263A1, “2-Propenal and related enal compounds for controlling plant pests and weeds in soil” (priority 2004, published 2006)

Columns and labels:
Type in all cases: in vivo
[1] = system: reniform nematode (Rotylenchulus reniformis); experiment: Greenhouse nematicidal experiment, soil infested with reniform nematode; conditions: pre-plant samples
Source text: (§1) The nematicidal properties of 2-propenal (CH2═CH—CHO; acrolein), 2-butenal (CH3—CH═CH—CHO; crotonaldehyde), and trans 2-pentenal (CH3—CH2—CH═CH—CHO) were studied in greenhouse experiments with soil severely infected with the reniform nematode (Rotylenchulus reniformis). The soil was collected from a cotton field and was a sandy loam with pH 6.2, organic matter content <1.0% and cation exchange capacity <10 meq/100 gms soil. The soil was mixed 50:50 by volume, with washed fine siliceous river sand and the mixture, here-from referred to as soil. The moist soil (50% field capacity) was apportioned in 1 Kg quantities contained in 4L polyethylene bags. The compounds were applied to the soil in the bags, and after thorough mixing the treated soil was transferred to 1 L capacity, 4-inch-diam. plastic (PVC) pots which were then covered with a polyethylene bag (1 mil) held tightly to the outside wall of the pot with a rubber band. The covered pots were placed on a greenhouse table and after 10 days the bags were removed and soil samples for nematode analyses were collected from each pot. The pots were planted with “Young” soybean (5 seed/pot.) Soybean plants were grown for 8 weeks when they were removed, soil samples taken for nematode analysis (salad bowl incubation technique), and data were collected on shoot height, and fresh weights of shoots and roots. The relative health of the root systems was determined using a subjective scale. […] Values between 1 and 5 represented intermediate degrees of damage. The roots were incubated to assess nematode populations in them.
(§2) Emulsifiable concentrates (EC's) were prepared for all three compounds containing 10% (w/w) emulsogen. The EC's were used to make aqueous emulsions containing 2.5% active ingredient; these emulsions were then used to deliver the compounds to soil. Each compound was delivered using the following rates: 0, 25, 50, 75, 100, 125, 150, 175, 200, 225, 250, 275, 300 mgs/kg soil. In every experiment there were 6 replications (pots) per treatment arranged in a randomized complete block design.
(§3) All data were analyzed according to standard procedures for analysis of variance. Fisher's Least Significant Differences (FLSD) were calculated when F values were significant and are included in the graphs. Curvilineal analyses were conducted according to standard procedures with the TableCurve 2D program.

tomato plant = experiment: Tomato plant growth study, vigor rating; set-up: key to TOMATO VIGOR 1-5SCALE: 1 = very little vigor, 5 = very vigorous
Source text: This example together with the data in Table 1 includes results of a study conducted to test the affects of acrolein on tomato plant growth. The first column in Table 1 includes, from left to right the treatment number, the treatment name, the rate of application, and the unit for that rate. The treatment name includes two separate treatment ingredients for each treatment number. The top name of each treatment name lists the test additive, and the bottom listing of the treatment name lists any additional herbicide applied in that particular treatment number. For example, in treatment number 5, methyl bromide was applied with a sandea herbicide. The rate and the rate unit headings, for this study, lists the amount of application of the treatment ingredients in pounds of active ingredients per acre (lb ai/a). Column 2 of Table 1 lists a vigor rating for each tomato plant on a scale of 1 to 5, wherein a 1 rating indicates a tomato plant with very little vigor, and a 5 rating indicates a very vigorous tomato plant. Column 2 lists vigor scale ratings for each treatment number taken on Aug. 17, 2005, and column 3 lists a vigor rating for each treatment taken on Aug. 25, 2005.

[2] = system: yellow nutsedge (Cyperus esculentus); experiment: Greenhouse herbicidal experiment, post-emergence; conditions: applied post-emergence
Experimental: Herbicidal properties of the compounds were studied as described for experiments on nematicidal activities. The soil was from a cotton field with a silt loam soil from a cotton field with similar properties as the one used for the nematode experiments. It was infested with a variety of weeds and was artificially seeded with 5 yellow nutsedge tubercles/pot. Nutsedge plants and other weeds were grown for a month, and the pots were then treated with 2-propenal and covered with polyethylene bags for 10 days, when the bags were removed and weed counts taken at two weeks and one month after treatment. Rates used in these experiments were: 0, 100, 200, 300, 400, 500, 600, 700, and 800 mgs/kg soil.
as §3

microbivorous nematodes = experiment: Greenhouse nematicidal experiment, microbivorous nematodes in soil and roots
Source text: as §1, §2, §3

"Young" soybean = experiment: Growth response of soybean plants in treated soil (greenhouse)
Source text: as §1, §2, §3

2-propenal was tested, and the “populations of reniform nematodes in pre-plant samples” value ([1]; 0-300 mgs/kg soil) was “reduced exponentially”, the “reduction in populations of reniform nematodes” value ([1]; 50 mgs/kg soil equivalent to 100 lbs/A) was greater than 90% and the “TOMATO VIGOR 1-5SCALE” value (tomato plant; 17/Aug/05, DRIP 200 lb ai/a, no herbicide) was 3.000. For the same substance, the “TOMATO VIGOR 1-5SCALE” value (tomato plant; 17/Aug/05, DRIP 200 lb ai/a, with SANDEA 0.25 lb ai/a) was 3.000, the “TOMATO VIGOR 1-5SCALE” value (tomato plant; 17/Aug/05, DRIP 200 lb ai/a, with V-10142 0.25 lb ai/a) was 3.000 and the “TOMATO VIGOR 1-5SCALE” value (tomato plant; 17/Aug/05, DRIP 400 lb ai/a, no herbicide) was 3.000. For the same substance, the “TOMATO VIGOR 1-5SCALE” value (tomato plant; 17/Aug/05, DRIP 400 lb ai/a, with SANDEA 0.25 lb ai/a) was 2.750, the “TOMATO VIGOR 1-5SCALE” value (tomato plant; 17/Aug/05, DRIP 400 lb ai/a, with V-10142 0.25 lb ai/a) was 3.000 and the “TOMATO VIGOR 1-5SCALE” value (tomato plant; 17/Aug/05, DRIP 600 lb ai/a, no herbicide) was 1.250. The “TOMATO VIGOR 1-5SCALE” value (tomato plant; 17/Aug/05, DRIP 600 lb ai/a, with SANDEA 0.25 lb ai/a) was 1.500, the “TOMATO VIGOR 1-5SCALE” value (tomato plant; 17/Aug/05, DRIP 600 lb ai/a, with V-10142 0.25 lb ai/a) was 2.250 and the “TOMATO VIGOR 1-5SCALE” value (tomato plant; 17/Aug/05, INJECT 200 lb ai/a, no herbicide, listed as ACROLEIN) was 4.250. The “TOMATO VIGOR 1-5SCALE” value (tomato plant; 17/Aug/05, INJECT 200 lb ai/a, no herbicide, listed as acrolein) was 4.25, the “TOMATO VIGOR 1-5SCALE” value (tomato plant; 17/Aug/05, INJECT 200 lb ai/a, with SANDEA 0.25 lb ai/a) was 4.000 and the “TOMATO VIGOR 1-5SCALE” value (tomato plant; 17/Aug/05, INJECT 200 lb ai/a, with V-10142 0.25 lb ai/a) was 4.000. For the same substance, the “TOMATO VIGOR 1-5SCALE” value (tomato plant; 17/Aug/05, INJECT 400 lb ai/a, no herbicide, listed as ACROLEIN) was 4.000, the “TOMATO VIGOR 1-5SCALE” value (tomato plant; 17/Aug/05, INJECT 400 lb ai/a, no herbicide, listed as acrolein) was 4.0 and the “TOMATO VIGOR 1-5SCALE” value (tomato plant; 17/Aug/05, INJECT 400 lb ai/a, with SANDEA 0.25 lb ai/a) was 3.000. For the same substance, the “TOMATO VIGOR 1-5SCALE” value (tomato plant; 17/Aug/05, INJECT 400 lb ai/a, with V-10142 0.25 lb ai/a) was 4.000, the “TOMATO VIGOR 1-5SCALE” value (tomato plant; 17/Aug/05, INJECT 600 lb ai/a, no herbicide) was 3.250 and the “TOMATO VIGOR 1-5SCALE” value (tomato plant; 17/Aug/05, INJECT 600 lb ai/a, with SANDEA 0.25 lb ai/a) was 3.250. The “TOMATO VIGOR 1-5SCALE” value (tomato plant; 17/Aug/05, INJECT 600 lb ai/a, with V-10142 0.25 lb ai/a) was 3.250, the “TOMATO VIGOR 1-5SCALE” value (tomato plant; 25/Aug/05, DRIP 200 lb ai/a, no herbicide) was 4.000 and the “TOMATO VIGOR 1-5SCALE” value (tomato plant; 25/Aug/05, DRIP 200 lb ai/a, with SANDEA 0.25 lb ai/a) was 3.750. For the same substance, the “TOMATO VIGOR 1-5SCALE” value (tomato plant; 25/Aug/05, DRIP 200 lb ai/a, with V-10142 0.25 lb ai/a) was 3.850, the “TOMATO VIGOR 1-5SCALE” value (tomato plant; 25/Aug/05, DRIP 400 lb ai/a, no herbicide) was 3.250 and the “TOMATO VIGOR 1-5SCALE” value (tomato plant; 25/Aug/05, DRIP 400 lb ai/a, with SANDEA 0.25 lb ai/a) was 3.500. For the same substance, the “TOMATO VIGOR 1-5SCALE” value (tomato plant; 25/Aug/05, DRIP 400 lb ai/a, with V-10142 0.25 lb ai/a) was 3.250, the “TOMATO VIGOR 1-5SCALE” value (tomato plant; 25/Aug/05, DRIP 600 lb ai/a, no herbicide) was 2.500 and the “TOMATO VIGOR 1-5SCALE” value (tomato plant; 25/Aug/05, DRIP 600 lb ai/a, with SANDEA 0.25 lb ai/a) was 2.500. The “TOMATO VIGOR 1-5SCALE” value (tomato plant; 25/Aug/05, DRIP 600 lb ai/a, with V-10142 0.25 lb ai/a) was 2.900, the “TOMATO VIGOR 1-5SCALE” value (tomato plant; 25/Aug/05, INJECT 200 lb ai/a, no herbicide, listed as ACROLEIN) was 4.750 and the “TOMATO VIGOR 1-5SCALE” value (tomato plant; 25/Aug/05, INJECT 200 lb ai/a, no herbicide, listed as acrolein) was 4.75. For the same substance, the “TOMATO VIGOR 1-5SCALE” value (tomato plant; 25/Aug/05, INJECT 200 lb ai/a, with SANDEA 0.25 lb ai/a) was 4.750, the “TOMATO VIGOR 1-5SCALE” value (tomato plant; 25/Aug/05, INJECT 200 lb ai/a, with V-10142 0.25 lb ai/a) was 4.750 and the “TOMATO VIGOR 1-5SCALE” value (tomato plant; 25/Aug/05, INJECT 400 lb ai/a, no herbicide, listed as ACROLEIN) was 5.000. The “TOMATO VIGOR 1-5SCALE” value (tomato plant; 25/Aug/05, INJECT 400 lb ai/a, no herbicide, listed as acrolein) was 5.0, the “TOMATO VIGOR 1-5SCALE” value (tomato plant; 25/Aug/05, INJECT 400 lb ai/a, with SANDEA 0.25 lb ai/a) was 4.250 and the “TOMATO VIGOR 1-5SCALE” value (tomato plant; 25/Aug/05, INJECT 400 lb ai/a, with V-10142 0.25 lb ai/a) was 4.650. The “TOMATO VIGOR 1-5SCALE” value (tomato plant; 25/Aug/05, INJECT 600 lb ai/a, no herbicide) was 4.250, the “TOMATO VIGOR 1-5SCALE” value (tomato plant; 25/Aug/05, INJECT 600 lb ai/a, with SANDEA 0.25 lb ai/a) was 4.000 and the “TOMATO VIGOR 1-5SCALE” value (tomato plant; 25/Aug/05, INJECT 600 lb ai/a, with V-10142 0.25 lb ai/a) was 3.750. For the same substance, the “doses resulting in practical elimination of the weed” value [2] was no less than 200 mgs/kgs soil, the “populations of microbivorous nematodes in pre-plant samples” value (microbivorous nematodes; 0-300 mgs/kg soil, pre-plant samples) was “reduced exponentially” and the “microbivorous populations at the end of the experiment” value (microbivorous nematodes; 75 mg rate) was “stimulated”. The “reduction in populations of microbivorous nematodes” value (microbivorous nematodes; 50 mgs/kg soil equivalent to 100 lbs/A, pre-plant samples) was greater than 90%, the “microbivorous populations at the end of the experiment” value (microbivorous nematodes; applications of ≦100 mgs/kg soil, soil and root samples) was “recovered” and the shoot height ("Young" soybean; dosages above 50 mgs) was “gradual decline”. The shoot weights ("Young" soybean; dosages above 50 mgs) was “gradual decline”, the root weights ("Young" soybean; dosages higher than 175 mgs) was “declined” and the shoot height ("Young" soybean; dosages ≦50 mgs) was “Sharp increases”. The shoot weights ("Young" soybean; dosages ≦50 mgs) was “Sharp increases”, the root weights ("Young" soybean; rates up to 175 mgs) was “increased gradually” and the root condition ("Young" soybean; subjective scale 1 to 5, rates 25-300 mgs/kg soil) was “improved by all but the highest dose”.
